# Like-named read-outs stand apart in the source and are kept apart here.
# What was measured:
# Format in all cases: cell-based
# [1] = system: C. albicans ATCC 10231; test: In vitro antifungal activity (MIC), agar dilution; conditions: Candida albicans, read-out: MIC
# Method: (§1) The antifungal activity of 1-[(2-fluorophenyl)(4-fluorophenyl)phenylmethyl]-1H-imidazole was shown by its ability to inhibit the growth of different species of yeast and filamentous fungi in vitro. The activity was recorded as the MIC value, that is, the minimum amount of product needed to achieve the complete inhibition of the in vitro growth of the test organism. Testing was performed as follows: a solution of the antifungal agent in ethanol was diluted with DST agar (pH 6.5) or Emmon's Sabouraud dextrose agar to obtain concentrations between 10 and 0.01 mcg/ml, or 80 and 0.16 mcg/m, respectively. The inoculum was standarized in order 1×10^5 cfu/ml, and 10 mcl of each organism was seeded into the agar surface. Incubation was then allowed at 30° C. during 3 days (DST) or 2 days (Emmon's) for yeasts and 10 days for filamentous fungi. Following incubation, the zones of inhibition were measured and compared to an inoculated, drug-free control to yield the MIC value.
# [2] = system: C. tropicalis SQ 1647; test: In vitro antifungal activity (MIC), agar dilution; conditions: Candida tropicalis, read-out: MIC
# Method: as §1
# [3] = system: Microsporum canis (clinica); test: In vitro antifungal activity (MIC), agar dilution
# Method: as §1
# [4] = system: Rhodotorula rubra; test: In vitro antifungal activity (MIC), agar dilution
# Method: as §1
# [5] = system: Microsporum gypseum (-); test: In vitro antifungal activity (MIC), agar dilution; conditions: Nannizzia gypsea
# Method: as §1
# [6] = system: T. mentagrophytes ATCC 9129; test: In vitro antifungal activity (MIC), agar dilution; conditions: Trichophyton mentagrophytes, read-out: MIC
# Method: as §1
# [7] = system: T. mentagrophytes ATCC 9972; test: In vitro antifungal activity (MIC), agar dilution; conditions: Trichophyton mentagrophytes, read-out: MIC
# Method: as §1
# [8] = system: T. mentagrophytes (clinica) (1); test: In vitro antifungal activity (MIC), agar dilution; conditions: Trichophyton mentagrophytes, read-out: MIC
# Method: as §1
# [9] = system: Microsporum audouini ATCC 9079; test: In vitro antifungal activity (MIC), agar dilution
# Method: as §1
# [10] = system: C. albicans serotipo A; test: In vitro antifungal activity (MIC), agar dilution; conditions: Candida albicans, read-out: MIC
# Method: as §1
# [11] = system: C. guilliermondii SQ 2210; test: In vitro antifungal activity (MIC), agar dilution; conditions: Meyerozyma guilliermondii, read-out: MIC
# Method: as §1
# [12] = system: T. mentagrophytes (clinica) (3); test: In vitro antifungal activity (MIC), agar dilution; conditions: Trichophyton mentagrophytes, read-out: MIC
# Method: as §1
# [13] = system: S. cerevisiae ATCC 9763; test: In vitro antifungal activity (MIC), agar dilution; conditions: Saccharomyces cerevisiae, read-out: MIC
# Method: as §1
# [14] = system: C. albicans serotipo B; test: In vitro antifungal activity (MIC), agar dilution; conditions: Candida albicans, read-out: MIC
# Method: as §1
# [15] = system: C. guilliermondii (clinica); test: In vitro antifungal activity (MIC), agar dilution
# Method: as §1
# [16] = system: C. tropicalis; test: MIC distribution, serial dilutions in Sabouraud gentamycin broth, microplates; conditions: # of strains = 30
# Method: (§2) The antifungal activity of 1-[(2-fluorophenyl)(4-fluorophenyl)phenylmethyl]-1H-imidazole and bifonazole was determined by serial dilutions in Sabouraud gentamycin broth using microplates. The antifungal agent was diluted in 50% ethanol to obtain concentrations between 40 and 0.015 mcg/ml. Inoculum was 10^7 cfu/ml for yeast and 10^6 cfu/ml for dermatophytes. Incubation was allowed at 37° C. during 2 days for yeasts, and at 29° C. during 7 days for dermatophytes. MIC's were determined as in example 18. The MIC distributions obtained in 9 organisms are shown in the next tables.
# [17] = system: M. canis; test: as above; conditions: # of strains = 13
# Method: as §2
# [18] = system: C. guilliermondii; test: as above; conditions: # of strains = 5
# Method: as §2
# [19] = system: C. parapsilosis; test: as above; conditions: # of strains 10 = UR-4056/14 = Bifonazole
# Method: as §2
# [20] = system: T. mentagrohytes; test: as above; conditions: # of strains = 17
# Method: as §2
# [21] = system: T. glabrata; test: as above; conditions: # of strains = 10 = UR-4056/15 Bifonzaole
# Method: as §2
# [22] = system: T. rubrum; test: as above; conditions: # of strains = 6
# Method: as §2
# [23] = system: C. albicans; test: as above; conditions: # of strains = 50
# Method: as §2
# [24] = system: C. krusei; test: as above; conditions: # of strains = 5
# Method: as §2
# [25] = Emmon's Sabouraud dextrose agar
compound,measurement,setting,value
"Fc1ccc(C(c2ccccc2)(c2ccccc2F)n2ccnc2)cc1 (stereo not shown) [UR-4056, 1-[(2-fluorophenyl) (4-fluorophenyl)phenylmethyl]-1H-imidazole]",MIC,"[1]; ATCC10231, DST agar",1 µg/mL
same,MIC,"[1]; ATCC10231, Emmon's Sabouraud dextrose agar",0.04 µg/mL
same,MIC,"[2]; SQ1647, DST agar",1 µg/mL
same,MIC,"[2]; SQ1647, Emmon's Sabouraud dextrose agar",0.63 µg/mL
same,MIC,[3]; DST agar,0.025 µg/mL
same,MIC,[3]; [25],0.63 µg/mL
same,MIC,[4]; DST agar,0.1 µg/mL
same,MIC,[4]; [25],0.08 µg/mL
same,MIC,[5]; DST agar,0.1 µg/mL
same,MIC,[5]; [25],0.63 µg/mL
same,MIC,"[6]; ATCC9129, DST agar",0.05 µg/mL
same,MIC,"[6]; ATCC9129, Emmon's Sabouraud dextrose agar",0.31 µg/mL
same,MIC,"[7]; ATCC9972, DST agar",0.25 µg/mL
same,MIC,"[7]; ATCC9972, Emmon's Sabouraud dextrose agar",1.25 µg/mL
same,MIC,[8]; DST agar,0.1 µg/mL
same,MIC,[8]; [25],1.25 µg/mL
same,MIC,"[9]; ATCC9079, DST agar",0.05 µg/mL
same,MIC,"[9]; ATCC9079, Emmon's Sabouraud dextrose agar",0.63 µg/mL
same,MIC,[10]; DST agar,1 µg/mL
same,MIC,[10]; [25],1.25 µg/mL
same,MIC,"[11]; SQ2210, DST agar",1 µg/mL
same,MIC,"[11]; SQ2210, Emmon's Sabouraud dextrose agar",0.16 µg/mL
same,MIC,[12]; DST agar,0.25 µg/mL
same,MIC,[12]; [25],0.16 µg/mL
same,MIC,"[13]; ATCC9763, DST agar",0.1 µg/mL
same,MIC,"[13]; ATCC9763, Emmon's Sabouraud dextrose agar",0.31 µg/mL
same,MIC,[14]; DST agar,0.5 µg/mL
same,MIC,[14]; [25],0.31 µg/mL
same,MIC,[15]; [25],5.00 µg/mL
same,MIC,"[15]; Meyerozyma guilliermondii, DST agar, read-out: MIC",5 µg/mL
same,MIC Distribution (number of strains),[16]; MIC 0.6,1 # of strains
same,MIC Distribution (number of strains),[16]; MIC 2.5,4 # of strains
same,MIC Distribution (number of strains),[16]; MIC 5.0,13 # of strains
same,MIC Distribution (number of strains),[16]; MIC column 0.078,1 # of strains
same,MIC Distribution (number of strains),[16]; MIC column 1.2,3 # of strains
same,MIC Distribution (number of strains),[16]; MIC column 10,8 # of strains
same,MIC Distribution (number of strains),[17]; MIC 0.3,4 # of strains
same,MIC Distribution (number of strains),[17]; MIC 2.5,4 # of strains
same,MIC Distribution (number of strains),[17]; MIC column 1.2,5 # of strains
same,MIC Distribution (number of strains),[18]; MIC 0.3,1 # of strains
same,MIC Distribution (number of strains),[18]; MIC 0.6,2 # of strains
same,MIC Distribution (number of strains),[18]; MIC column 1.2,2 # of strains
same,MIC Distribution (number of strains),[19]; MIC 0.038,2 # of strains
same,MIC Distribution (number of strains),[19]; MIC 0.15,1 # of strains
same,MIC Distribution (number of strains),[19]; MIC 0.3,2 # of strains
same,MIC Distribution (number of strains),[19]; MIC 0.6,2 # of strains
same,MIC Distribution (number of strains),[19]; MIC column 1.2,1 # of strains
same,MIC Distribution (number of strains),[19]; MIC column 10,2 # of strains
same,MIC Distribution (number of strains),[20]; MIC 0.15,1 # of strains
same,MIC Distribution (number of strains),[20]; MIC 0.3,2 # of strains
same,MIC Distribution (number of strains),[20]; MIC 0.6,11 # of strains
same,MIC Distribution (number of strains),[20]; MIC column 1.2,3 # of strains
same,MIC Distribution (number of strains),[21]; MIC 0.6,1 # of strains
same,MIC Distribution (number of strains),[21]; MIC 2.5,1 # of strains
same,MIC Distribution (number of strains),[21]; MIC 5.0,2 # of strains
same,MIC Distribution (number of strains),[21]; MIC column 10,4 # of strains
same,MIC Distribution (number of strains),[21]; MIC column 20,1 # of strains
same,MIC Distribution (number of strains),[21]; MIC column 40 (first),1 # of strains
same,MIC Distribution (number of strains),[22]; MIC 0.15,4 # of strains
same,MIC Distribution (number of strains),[22]; MIC 2.5,1 # of strains
same,MIC Distribution (number of strains),[22]; MIC column 1.2,1 # of strains
same,MIC Distribution (number of strains),[23]; MIC 0.3,1 # of strains
same,MIC Distribution (number of strains),[23]; MIC 2.5,11 # of strains
same,MIC Distribution (number of strains),[23]; MIC 5.0,31 # of strains
same,MIC Distribution (number of strains),[23]; MIC column 1.2,2 # of strains
same,MIC Distribution (number of strains),[23]; MIC column 10,5 # of strains
same,MIC Distribution (number of strains),[24]; MIC 0.3,1 # of strains
same,MIC Distribution (number of strains),[24]; MIC 2.5,2 # of strains
same,MIC Distribution (number of strains),[24]; MIC column 1.2,1 # of strains
same,MIC Distribution (number of strains),[24]; MIC column 40 (first),1 # of strains

# Source: US5149707A, “1-((2-fluorophenyl)(4-fluorophenyl)phenylmethyl)-1H-imidazole useful as antifungal agent” (J. Uriach & Cia, S.A., priority 1988, dated 1992)
